From patent publication US11827628B2, “Compositions and methods for inhibition of the JAK pathway” (Rigel Pharmaceuticals, Inc., priority 2005, dated 2023)
Where two headings read alike, the source gives them in different places.

Key:
[1] = system: IL-4 stimulated expression of CD23 in human Ramos B cells (JAK-1 and JAK-3); experiment: Assay for Ramos B-Cell Line Stimulated with IL-4 (CD23 upregulation, FACS); type: cell-based; settings: read-out: IC50, Example 41
In short: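 Read-out: anti-CD23-PE flow cytometry on Ramos B cells, giving IC50. Cells (5×10^4 per point, RPMI + 5% serum) get compound or DMSO for 1 h at 37 °C, then IL-4 50 units/mL final for 20-24 h.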

[2] = system: up-regulation of ICAM-1 (CD54) by IFNγ in A549 lung epithelial cells; experiment: A549 Epithelial Line Stimulated with IFNγ (ICAM-1 surface expression, FACS); type: cell-based, human; settings: ICAM-1 expression by FACS, read-out: IC50, Example 43
Text: (§1) The activity of the compounds of the invention may additionally be characterized by assaying the effect of the 2,4-substituted pyrimidinediamine compounds described herein on A549 lung epithelial cells and U937 cells. A549 lung epithelial cells and U937 cells up-regulate ICAM-1 (CD54) surface expression in response to a variety of different stimuli. Therefore, using ICAM-1 expression as readout, test compound effects on different signaling pathways can be assessed in the same cell type. Stimulation with IL-1β through the IL-1β receptor activates the TRAF6/NFκB pathway resulting in up-regulation of ICAM-1. IFNγ induces ICAM-1 up-regulation through activation of the JAK1/JAK2 pathway. The up-regulation of ICAM-1 can be quantified by flow cytometry across a compound dose curve and EC50, values are calculated. An exemplary assays of this type are described in greater detail in Examples 43 and 44
(§2) A549 lung epithelial cells up-regulate ICAM-1 (CD54) surface expression in response to a variety of different stimuli. Therefore, using ICAM-1 expression as readout, compound effects on different signaling pathways can be assessed in the same cell type. IFNγ up-regulates ICAM-1 through activation of the JAK/Stat pathway. In this example, the up-regulation of ICAM-1 by IFNγ was assessed.
The A549 lung epithelial carcinoma cell line originated from the American Type Culture Collection. Routine culturing was with F12K media (Mediatech Inc., Lenexa, KS, Cat. No. 10-025-CV) with 10% fetal bovine serum, 100 I.U. penicillin and […] streptomycin (complete F12k media). Cells were incubated in a humidified atmosphere of 5% CO2 at 37° C. Prior to use in the assay, A549 cells were washed with PBS and trypsinized (Mediatech Inc., Cat. No. 25-052-CI) to lift the cells. The trypsin cell suspension was neutralized with complete F12K media and centrifuged to pellet the cells. The cell pellet was resuspended in complete F12K media at a concentration of 2.0×10^5/mL. Cells were seeded at 20,000 per well, 100 μL total volume, in a flat bottom tissue culture plate and allowed to adhere overnight.
On day two, A549 cells were pre-incubated with a 2,4-substituted pyrimidinediamine test compound or DMSO (control) (Sigma-Aldrich, St. Louis, MO, Catalog No. D2650) for 1 hour. The cells were then stimulated with IFNγ (75 ng/mL) (Peprotech Inc., Rocky Hill, NJ, Cat. No. 300-02) and allowed to incubate for 24 hours. The final test compound dose range was 30 μM to 14 nM in 200 μL F12K media containing 5% FBS, 0.3% DMSO.
On day three, the cell media was removed and the cells were washed with 200 μL PBS (phosphate buffered saline). Each well was trypsinized to dissociate the cells, then neutralized by addition of 200 μL complete F12K media. Cells were pelleted and stained with an APC conjugated mouse anti-human ICAM-1 (CD54) (BD Pharmingen, San Diego, CA, Catalog #559771) antibody for 20 minutes at 4° C. Cells were washed with ice cold FACS buffer (PBS+2% FBS) and surface ICAM-1 expression was analyzed by flow cytometry. Detection was performed using a BD LSR I System Flow Cytometer, purchased from BD Biosciences of San Jose, California Events were gated for live scatter and the geometric mean was calculated (Becton-Dickinson CellQuest software version 3.3, Franklin Lakes, NJ). Geometric means were plotted against the compound concentration to generate a dose response curve.

[3] = system: up-regulation of ICAM-1 (CD54) by IFNγ in U937 human monocytic cells; experiment: U937 IFNγ ICAM1 FACS Assay; type: cell-based; settings: ICAM-1 expression by FACS, read-out: IC50, Example 44
Text: as §1, with “calculated.” for “calculated. An exemplary assays of this type are described in greater detail in Examples 43 and 44”
as §2, with “U937 human monocytic” for “A549 lung epithelial”
The U937 human monocytic cell line was obtained from ATCC of Rockville Maryland, catalog number CRL-1593.2, and cultured in RPM1-1640 medium containing 10% (v/v) FCS. U937 cells were grown in 10% RPMI. The cells were then plated at a concentration of 100,000 cells per 160 μL in 96 well flat bottom plates. […] Then 4 μL of test compound was transferred to 76 μL of 10% RPMI resulting in a 10× solution (100 μM test compound, 5% DMSO). For control wells, 4 μL of DMSO was diluted into 76 μL 10% RPMI.
The assay was performed in duplicate with 8 points (8 3-fold dilution concentrations from […]) and with 4 wells of DMSO only (control wells) under stimulated conditions and 4 wells of DMSO only under unstimulated conditions.
The diluted compound plate was mixed 2× using a multimek (Beckman Coulter of Brea, California) and then 20 μL of the diluted compounds was transferred to the 96 well plate containing 160 μL of cells, which were then mixed again twice at low speeds. The cells and compounds were then pre-incubated for 30 minutes at 37° C. with 5% CO2.
The 10× stimulation mix was made by preparing a 100 ng/mL solution of human IFNγ in 10% RPMI. […] The cells were kept under conditions for stimulation for 18-24 hours at 37° C. with 5% CO2.
The cells were transferred to a 96 well round bottom plate for staining and then kept on ice for the duration of the staining procedure. Cells were spun down at 1000 rpm for 5 minutes at 4° C., following which the supernatant was removed. Following removal of the supernatant, 1 μL APC conjugated mouse anti-human ICAM-1 antibody was added per 100 μL FACS buffer. The cells were then incubated on ice in the dark for 30 minutes. Following incubation, […] of FACS buffer was added and the cells were centrifuged at 1000 rpm for 5 minutes at 4° C., following which the supernatant was removed. After removal of the supernatant, 200 μL of FACS buffer was added and the cells were resuspended. After suspension, the cells were centrifuged at 1000 rpm for 5 min at 4° C. Supernatant was then removed prior to resuspension of the cells in 150 μL FACS buffer.
Detection was performed using a BD LSR I System Flow Cytometer, purchased from BD Biosciences of San Jose, California The live cells were gated for live scatter and the geometric mean of ICAM-APC was measured (Becton-Dickinson CellQuest software version 3.3, Franklin Lakes, NJ). Both % live cells and ICAM-1 expression was analyzed. The assays for the test compounds were carried out in parallel with a control compound of known activity.

[4] = Ramos B-cell line stimulated with IL-4, CD23 expression by FACS
[5] = A549 epithelial line stimulated with IFNγ
[6] = Homo sapiens, Ramos, Ramos B-cell line stimulated with IL-4, CD23 expression by FACS
[7] = Homo sapiens, A549, A549 epithelial line stimulated with IFNγ
[8] = U937 cells stimulated with IFNγ
[9] = Homo sapiens, U-937, U937 cells stimulated with IFNγ

SMILES	IC50 [1, 4]	IC50 [2, 5]	IC50 [1, 6]	IC50 [3, 9]	other results
CN1CCN(S(=O)(=O)c2ccc(Nc3ncc(F)c(Nc4cccc(OCC#N)c4)n3)cc2)CC1 [Compound I-6, N4-(3-Cyanomethoxy)phenyl-5-fluoro-N2-[4-(4-methylpiperazin-1-yl)sulfonyl]phenyl-2,4-pyrimidinediamine]	0.522 µM	21 µM			
CN1CCN(S(=O)(=O)c2cccc(Nc3ncc(F)c(Nc4cccc(OCC#N)c4)n3)c2)CC1 [Compound I-5, N4-(3-Cyanomethoxy)phenyl-5-fluoro-N2-[3-(4-methylpiperazin-1-yl)sulfonyl]phenyl-2,4-pyrimidinediamine]	1.65 µM	29.9 µM			
N#CCOc1ccc(Nc2nc(Nc3ccc(S(N)(=O)=O)cc3)ncc2F)cc1Cl [Compound I-41, N2-(4-Aminosulfonylphenyl)-N4-(3-chloro-4-cyanomethoxyphenyl)-5-fluoro-2,4-pyrimidinediamine]			0.0374 µM		IC50 [2, 7]: 10.2 µM
CNS(=O)(=O)c1cc(Nc2ncc(F)c(Nc3ccc(OCc4cc(C)on4)c(C)c3)n2)ccc1C [Compound I-239, 5-Fluoro-N2-[3-N-(methyl)aminosulfonyl-4-methylphenyl]-N4-[3-methyl-4-(5-methylisoxazol-3-yl)methyleneoxyphenyl]-2,4-pyrimidinediamine]	0.24 µM				IC50 [3, 8]: 7.06 µM
N#CCOc1ccc(Nc2nc(Nc3cccc(S(N)(=O)=O)c3)ncc2F)cc1CO [Compound I-50, N2-(3-Aminosulfonylphenyl)-N4-(4-cyanomethoxy-3-hydroxymethylphenyl)-5-fluoro-2,4-pyrimidinediamine]			0.373 µM	25.1 µM	
CCN(CC)CCNS(=O)(=O)c1ccc(Nc2ncc(F)c(Nc3ccc(Cc4ccncc4)cc3)n2)cc1 [III-67, N2-[4-(2-N,N-Diethylaminoethyl)aminosulfonylphenyl)-5-fluoro-N4-[4-(4-pyridinylmethyl)phenyl]-2,4-pyrimidinediamine]	0.347 µM				IC50 [3, 8]: 3.05 µM
N#CCOc1ccc(Nc2nc(Nc3cccc(S(N)(=O)=O)c3)ncc2F)cc1-c1ccn(CC#N)n1 [Compound I-53, N2-(3-Aminosulfonylphenyl)-N4-[4-cyanomethoxy-3-(1-cyanomethylpyrazol-3-yl)phenyl]-5-fluoro-2,4-pyrimidinediamine]			0.236 µM	12.2 µM	
Cc1cc(Nc2nc(Nc3ccc(S(=O)(=O)N4CCN(C)CC4)cc3)ncc2F)cc(C)c1OCC#N [Compound I-40, N4-(4-Cyanomethoxy-3,5-dimethylphenyl)-5-fluoro-N2-[4-(4-methylpiperazin-1-yl)sulfonylphenyl]-2,4-pyrimidinediamine]			0.308 µM		IC50 [2, 7]: 31 µM
CN1CCN(S(=O)(=O)c2ccc(Nc3ncc(F)c(Nc4ccc(CC#N)cc4)n3)cc2)CC1 [III-6, N4-(4-Cyanomethyl)phenyl-5-fluoro-N2-[4-(4-methylpiperazin-1-yl)sulfonyl]phenyl-2,4-pyrimidinediamine]	0.781 µM	30.7 µM			
Cc1c(Cl)cc(Nc2ncc(F)c(Nc3ccc(OC(F)(F)F)c(Cl)c3)n2)cc1S(N)(=O)=O [VI-14, N2-(3-Aminosulfonyl-5-chloro-4-methylphenyl)-N4-(3-chloro-4-trifluoromethoxyphenyl)-5-fluoro-2,4-pyrimidinediamine]				9.27 µM	IC50 ([1]; Homo sapiens, Ramos, Ramos B cells stimulated with IL-4, CD23 expression by FACS): 0.413 µM
